# Data reported in patent publication US20240389587A1, “COMPOSITIONS AND METHODS FOR CONTROLLING PHYTOPATHOGENIC INFECTIONS” (INSTITUT NATIONAL DE RECHERCHE POUR L'AGRICULTURE, …, priority 2021, published 2024).
# Molecular target: T1, IRE1 (Saccharomyces cerevisiae, UniProt P32361)
# T1 construct: endogenous in cells
# Assay: IRE1 inhibitors screening (inhibition of transcriptional activator HAC1 in yeast)
# Type: cell-based
# Conditions: not given
# Text: A series of natural products were screened for their capacity to inhibit the UPR pathway via the inhibition of IRE1 in an in vitro screening test, based inhibition of the transcriptional activator HAC1 in Saccharomyces cerevisiae (the IRE1 protein is the ‘sole effector of the UPR pathway in fungi).
# T1 sequence (P32361 19-1115): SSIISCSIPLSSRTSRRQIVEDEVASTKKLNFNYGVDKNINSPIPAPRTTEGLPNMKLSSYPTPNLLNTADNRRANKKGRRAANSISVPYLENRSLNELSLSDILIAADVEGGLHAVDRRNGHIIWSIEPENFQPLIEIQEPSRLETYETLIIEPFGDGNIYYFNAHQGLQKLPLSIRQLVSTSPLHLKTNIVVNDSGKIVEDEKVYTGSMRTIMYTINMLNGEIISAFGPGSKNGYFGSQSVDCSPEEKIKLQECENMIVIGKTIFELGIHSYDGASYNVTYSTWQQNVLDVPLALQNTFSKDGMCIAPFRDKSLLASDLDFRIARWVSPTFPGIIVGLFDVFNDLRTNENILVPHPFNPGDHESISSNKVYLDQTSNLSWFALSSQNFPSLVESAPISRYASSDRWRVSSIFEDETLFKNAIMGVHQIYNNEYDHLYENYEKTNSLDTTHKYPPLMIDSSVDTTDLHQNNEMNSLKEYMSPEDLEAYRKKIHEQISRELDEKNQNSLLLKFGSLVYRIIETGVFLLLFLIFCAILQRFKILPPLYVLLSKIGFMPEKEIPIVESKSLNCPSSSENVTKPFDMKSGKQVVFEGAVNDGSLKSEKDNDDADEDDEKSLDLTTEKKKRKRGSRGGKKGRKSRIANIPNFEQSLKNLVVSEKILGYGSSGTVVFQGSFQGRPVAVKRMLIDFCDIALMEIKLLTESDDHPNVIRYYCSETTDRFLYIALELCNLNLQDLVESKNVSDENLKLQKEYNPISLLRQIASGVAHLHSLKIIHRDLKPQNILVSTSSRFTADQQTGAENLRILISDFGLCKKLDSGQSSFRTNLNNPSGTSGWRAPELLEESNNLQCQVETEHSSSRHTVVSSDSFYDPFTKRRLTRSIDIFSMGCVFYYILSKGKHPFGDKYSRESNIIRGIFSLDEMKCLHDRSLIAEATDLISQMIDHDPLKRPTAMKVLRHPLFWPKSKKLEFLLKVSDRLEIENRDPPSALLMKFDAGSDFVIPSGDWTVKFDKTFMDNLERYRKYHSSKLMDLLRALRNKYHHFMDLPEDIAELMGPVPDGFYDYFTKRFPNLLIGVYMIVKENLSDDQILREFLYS
row,Molecule,μ (% activation) ± σ [%]
1,C[C@@H]1O[C@@H](Oc2c(-c3ccc(O)c(O)c3)oc3cc(O)cc(O)c3c2=O)[C@H](O)[C@H](O)[C@H]1O [Quercitrin],102 ± 2.4
2,O=c1cc(-c2ccccc2)oc2cc(O)cc(O)c12 [Chrysine],91.7 ± 1.4
3,Cycleanine,102.2 ± 1.9
4,C[n+]1cc2c3c(ccc2c2ccc4cc5c(cc4c21)OCO5)OCO3 [Sanguinarine],91.1 ± 3.1
5,"COc1cc2c(cc1O)C1Cc3cc(OC)c(OC)cc3C(C2)N1C (single isomer, unassigned; (-)) [(−)-Norargemonine]",101.7 ± 3.6
6,COc1cc(C[C@H]2C(=O)OC[C@@H]2Cc2ccc3c(c2)OCO3)cc(OC)c1OC [Yatein],100.7 ± 2.5

# Same assay, conditions: in vitro screening; IRE1 activity of less than 80% = retained as IRE1 inhibitor
row,Molecule,μ (% activation) ± σ [%]
1,COc1cc2oc3cc(O)c(OC)c(CC=C(C)C)c3c(=O)c2c(O)c1CC=C(C)C [β-mangostin],100.3 ± 4.7
2,COc1c(O)ccc2oc3ccccc3c(=O)c12 [1-methoxy-2-hydroxy-xanthone],97.9 ± 3.6
3,COc1c(O)cc2oc3cc4c(c(O)c3c(=O)c2c1CC=C(C)C)C=CC(C)(C)O4 [9-hydroxycalabaxanthone],103.5 ± 2.8
4,CC(C)=CCc1c(O)cc2oc3c(CC=C(C)C)c(O)c(O)c(CC=C(C)C)c3c(=O)c2c1O [Garcinon E],101.6 ± 3.9
5,Tetraprenyltoluquinone,100.8 ± 1.5
6,COc1cc2c(cc1OC)C1Cc3ccc(OC)c(OC)c3C(=O)N1CC2 (racemic) [(±)-8-Oxotetrahydropalmatine],99.6 ± 2.8
7,Anibacanine,100.2 ± 3.6
8,Cc1cc(O)c2c(c1)C(=O)c1cc(O)cc(O)c1C2=O [Emodin],104.5 ± 3.1
9,CC(C)=CCc1c(O)cc2oc3ccc4c(c3c(=O)c2c1O)C=CC(C)(C)O4 [Calothwaitesixanthone],104.6 ± 1.4
10,O=c1ccc2ccc(O)cc2o1 [Umbelliferone],105.3 ± 2.3
11,CC1(C)C=Cc2c(cc3oc4ccc5c(c4c(=O)c3c2O)C=CC(C)(C)O5)O1 [Thwaitesixanthone],101.1 ± 2.1
12,O=C1C[C@@H](c2ccc(O)cc2)Oc2cc(O)cc(O)c21 [Naringenin],101.1 ± 1.2
13,COc1cc(C(=O)O)cc(OC)c1O [Syringic acid],97.8 ± 3.1
14,Pseudoanibacanine,100.0 ± 3.7
15,"C[C@H](C/C=C/C(C)(C)O)[C@@H]1CC[C@]2(C)C3=C(CC[C@@]12C)[C@@]1(C)CC[C@H](O)C(C)(C)C1CC3 (stereo partly drawn) [(20R,23E)-Eupha-8,23-diene-3b,25-diol]",100.6 ± 2.5
16,(-)-Curine,100.0 ± 3.8
17,CC(C)=CCc1c(O)c(CC=C(C)C)c2oc3c(O)cccc3c(=O)c2c1O [8-deoxygartanin],96.6 ± 5.7
18,O=c1cc(-c2ccc(O)c(-c3c(O)cc(O)c4c(=O)cc(-c5ccc(O)cc5)oc34)c2)oc2cc(O)cc(O)c12 [Amentoflavone],101.8 ± 2.3
19,2-Deprenyl-rheediaxanthone B,97.3 ± 4.2
20,O=c1c(O)c(-c2ccc(O)c(O)c2)oc2cc(O)cc(O)c12 [Quercetin],98.5 ± 1.4
21,CC(C)=CCC/C(C)=C/COc1c2ccoc2cc2oc(=O)ccc12 [Bergamotine],103.5 ± 1.6
22,"O=c1c2cc(O)ccc2oc2c(O)c(O)c(O)c(O)c12 [2,5,6,7,8-Pentahydroxyxanthone]",102.3 ± 0.7
23,CCCC(=O)c1c(O)c(CC=C(C)C)c2oc(=O)cc(-c3ccccc3)c2c1O [Mammea A/AC],102.4 ± 1.7
24,"O=c1c2ccc(O)c(O)c2oc2cc(O)cc(O)c12 [1,3,5,6-tétra-hydroxy-xanthone]",103.9 ± 0.7

# Same assay, conditions: read-out: IRE1 IC50
row,Molecule,IC50 [µM]
1,demethylrubraxanthone,6.5 ± 0.4
